pIC50: −log10 of the molar value.

T1 sequence (Q00987 17-125): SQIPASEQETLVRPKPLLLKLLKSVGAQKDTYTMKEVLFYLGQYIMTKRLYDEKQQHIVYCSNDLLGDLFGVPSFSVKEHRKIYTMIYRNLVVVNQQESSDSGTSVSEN

This test addresses T1, HDM2 (Homo sapiens, UniProt Q00987).
T1 construct: Thioredoxin (N); made in house; host or cells: E. coli strain BL21(DE3)Rosetta
As to the kind of experiment: HDM2 FRET assay (inhibition of binding of FITC labeled p53-pocket peptide to HDM2). The following applies: Table 11; read-out: FRET IC50. An outline of the steps:
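Compounds were tested in 10-point serial dilution against 0.5 nM recombinant HDM2 binding 3 nM fluorescein-labeled p53-pocket peptide. Detection used 0.25 nM terbium cryptate anti-6xHis antibody in PBS buffer containing 0.01% BSA and 0.01% Tween-20.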
As usually defined, the pIC50 is the negative decadic logarithm of the IC50, by convention in mol/L. In the case of `C[C@@H](Nc1nc(-c2noc(=O)[nH]2)nc2nc(N3CCCCC3C3CCCCC3)n(C[C@H]3CC[C@H](C)CC3)c12)C1CCC1` (stereo partly drawn) [Example 11.5, 3-(6-(((R)-1-cyclobutylethyl)amino)-8-(2-cyclohexylpiperidin-1-yl)-7-((trans-4-methylcyclohexyl)methyl)-7H-purine-2-yl)-1,2,4-oxadiazol-5(4H)-one], the pIC50 was 6.35. On to `CC1CCCN(c2nc3nc(C(=O)O)nc(N[C@H](C)C4CCC4)c3n2C[C@H]2CC[C@H](C)CC2)C1c1ccccc1` (stereo partly drawn) [Example 11.6, 6-(((R)-1-cyclobutylethyl)amino)-8-(3-methyl-2-phenylpiperidin-1-yl)-7-((trans-4-methylcyclohexyl)methyl)-7H-purine-2-carboxylic acid], for which the pIC50 was 8.74. For `CC1CCCN(c2nc3nc(-c4noc(=O)[nH]4)nc(N[C@H](C)C4CCC4)c3n2C[C@H]2CC[C@H](C)CC2)C1c1ccccc1` (stereo partly drawn) [Example 11.7, 3-(6-(((R)-1-cyclobutylethyl)amino)-8-(3-methyl-2-phenylpiperidin-1-yl)-7-((trans-4-methylcyclohexyl)methyl)-7H-purin-2-yl)-1,2,4-oxadiazol-5(4H)-one] the value was 8.20; for `C[C@@H](Nc1nc(-c2noc(=O)[nH]2)nc2nc(N3CCC[C@H]3CF)n(C[C@H]3CC[C@H](C)CC3)c12)C1CCC1` [Example 11.8, 3-(6-{[(1R)-1-cyclobutylethyl]amino}-8-[(2S)-2-(fluoromethyl)pyrrolidin-1-yl]-7-[(trans-4-methylcyclohexyl)methyl]-7H-purin-2-yl)-1,2,4-oxadiazol-5(4H)-one], 8.63.

As for `C[C@H]1CC[C@H](Cn2c(N3CCOC[C@H]3c3ccccc3)nc3nc(-c4noc(=O)[nH]4)nc(N4CC[C@@H]4C4CCC4)c32)CC1` [Example 11.9, 3-(6-((R)-2-Cyclobutylazetidin-1-yl)-7-((trans-4-methylcyclohexyl)methyl)-8-((R)-3-phenylmorpholino)-7H-purin-2-yl)-1,2,4-oxadiazol-5(4H)-one], the pIC50 was 7.56. For `C[C@@H](Nc1nc(C(=O)O)nc2nc(N3CCOC[C@H]3c3ccccc3)n(C[C@H]3CC[C@H](C)CC3)c12)C1CCC1` [Example 11.10, 6-{[(1R)-1-cyclobutylethyl]amino}-7-[(trans-4-methylcyclohexyl)methyl]-8-[(3R)-3-phenylmorpholin-4-yl]-7H-purine-2-carboxylic acid], the pIC50 was 9.69. Consider `C[C@@H](Nc1nc(-c2noc(=O)[nH]2)nc2nc(N3CCOC[C@H]3c3ccccc3)n(C[C@H]3CC[C@H](C)CC3)c12)C1CCC1` [Example 11.11, 3-(6-{[(1R)-1-cyclobutylethyl]amino}-7-[(trans-4-methylcyclohexyl)methyl]-8-[(3R)-3-phenylmorpholin-4-yl]-7H-purin-2-yl)-1,2,4-oxadiazol-5(4H)-one], for which the negative logarithm of the IC50 (pIC50) is 9.20.

Turning to `C[C@@H](Nc1nc(C(=O)O)nc2nc(N3CCCC[C@@H]3c3ccccc3)n(C[C@H]3CC[C@H](C)CC3)c12)C1CCC1` [Example 11.12, 6-{[(1R)-1-cyclobutylethyl]amino}-7-[(trans-4-methylcyclohexyl)methyl]-8-[(2R)-2-phenylpiperidin-1-yl]-7H-purine-2-carboxylic acid], the pIC50 is 8.55.

For the molecule `C[C@@H](Nc1nc(-c2noc(=O)[nH]2)nc2nc(N3CCCC[C@@H]3c3ccccc3)n(C[C@H]3CC[C@H](C)CC3)c12)C1CCC1` [Example 11.13, 3-(6-{[(1R)-1-cyclobutylethyl]amino}-7-[(trans-4-methylcyclohexyl)methyl]-8-[(2R)-2-phenylpiperidin-1-yl]-7H-purin-2-yl)-1,2,4-oxadiazol-5(4H)-one], the pIC50 is 7.57.

With `C[C@@H](Nc1nc(C(=O)O)nc2nc(N3CCCC[C@H]3c3ccccc3)n(C[C@H]3CC[C@H](C)CC3)c12)C1CCC1` [Example 11.14, 6-{[(1R)-1-cyclobutylethyl]amino}-7-[(trans-4-methylcyclohexyl)methyl]-8-[(2S)-2-phenylpiperidin-1-yl]-7H-purine-2-carboxylic acid], the pIC50 is 9.42. For `C[C@@H](Nc1nc(-c2noc(=O)[nH]2)nc2nc(N3CCCC[C@H]3c3ccccc3)n(C[C@H]3CC[C@H](C)CC3)c12)C1CCC1` [Example 11.15, 3-(6-{[(1R)-1-cyclobutylethyl]amino}-7-[(trans-4-methylcyclohexyl)methyl]-8-[(2S)-2-phenylpiperidin-1-yl]-7H-purin-2-yl)-1,2,4-oxadiazol-5(4H)-one] the value was 8.55.

With `C[C@@H](Nc1nc(C(=O)O)nc2nc(N3CCCCC3c3cccc(F)c3)n(C[C@H]3CC[C@H](C)CC3)c12)C1CCC1` (stereo partly drawn) [Example 11.16, 6-{[(1R)-1-cyclobutylethyl]amino}-8-[2-(3-fluorophenyl)piperidin-1-yl]-7-[(trans-4-methylcyclohexyl)methyl]-7H-purine-2-carboxylic acid], the pIC50 was 8.55. In the case of `C[C@@H](Nc1nc(C(=O)O)nc2nc(N3CCc4ccccc4C3)n(C[C@H]3CC[C@H](C)CC3)c12)C1CCC1` [Example 11.17, 6-{[(1R)-1-cyclobutylethyl]amino}-8-(3,4-dihydroisoquinolin-2(1H)-yl)-7-[(trans-4-methylcyclohexyl)methyl]-7H-purine-2-carboxylic acid], the pIC50 is 7.75. As to `C[C@@H](Nc1nc(C(=O)O)nc2nc(N3CCCCC3c3ccc(F)cc3)n(C[C@H]3CC[C@H](C)CC3)c12)C1CCC1` (stereo partly drawn) [Example 11.18, 6-{[(1R)-1-cyclobutylethyl]amino}-8-[2-(4-fluorophenyl)piperidin-1-yl]-7-[(trans-4-methylcyclohexyl)methyl]-7H-purine-2-carboxylic acid], the pIC50 is 8.35. `C[C@@H](Nc1nc(C(=O)O)nc2nc(N3CCCCC3c3cccnc3)n(C[C@H]3CC[C@H](C)CC3)c12)C1CCC1` (stereo partly drawn) [Example 11.19, 6-{[(1R)-1-cyclobutylethyl]amino}-7-[(trans-4-methylcyclohexyl)methyl]-8-(2-pyridin-3-ylpiperidin-1-yl)-7H-purine-2-carboxylic acid]: the pIC50 is 9.05. Turning to `C[C@@H](Nc1nc(C(=O)O)nc2nc(N3CCCC4CCCCC43)n(C[C@H]3CC[C@H](C)CC3)c12)C1CCC1` (stereo partly drawn) [Example 11.20, 6-{[(1R)-1-cyclobutylethyl]amino}-7-[(trans-4-methylcyclohexyl)methyl]-8-(octahydroquinolin-1(2H)-yl)-7H-purine-2-carboxylic acid], the pIC50 is 8.87. Consider `C[C@@H](Nc1nc(C(=O)O)nc2nc(N3CCCCC3c3ccccn3)n(C[C@H]3CC[C@H](C)CC3)c12)C1CCC1` (stereo partly drawn) [Example 11.21, 6-{[(1R)-1-cyclobutylethyl]amino}-7-[(trans-4-methylcyclohexyl)methyl]-8-(2-pyridin-2-ylpiperidin-1-yl)-7H-purine-2-carboxylic acid], for which the pIC50 was 8.57.

Regarding `C[C@@H](Nc1nc(C(=O)O)nc2nc(N3CCC4CCCCC4C3)n(C[C@H]3CC[C@H](C)CC3)c12)C1CCC1` (stereo partly drawn) [Example 11.22, 6-{[(1R)-1-cyclobutylethyl]amino}-7-[(trans-4-methylcyclohexyl)methyl]-8-(octahydroisoquinolin-2(1H)-yl)-7H-purine-2-carboxylic acid], the pIC50 was 7.74.

Source of the values: EP2951180B1, “2,6,7,8 SUBSTITUTED PURINES AS HDM2 INHIBITORS” (Merck Sharp & Dohme Corp., priority 2013, dated 2014).
